Source: US8557859B2, “Immunomodulatory compositions” (Summit (Wales) Limited, priority 2003, dated 2013)

Assays:
[1] = molecular target: T1, rabbit small intestine sucrase (Oryctolagus cuniculus, UniProt P07768); test: Inhibition of rabbit small intestine sucrase; type: biochemical; settings: at a concentration of 700 μM
T1 construct: from tissue; host or cells: rabbit small intestine

Dendritic cells = test: Induction of IL-12 secretion in dendritic cells (ELISA); type: cell-based, BALB/c mice; settings: dendritic cells; compounds 50 μg/ml and 20 μg/ml, 24 hrs (or 48 hrs)
Experimental: BALB/c male and female mice bred and maintained at the University of Strathclyde under conventional conditions were used at 8 weeks old.
Bone marrow was obtained from the femurs of mice. The femurs were washed in 70% ethanol and placed in a clean petri dish. Dendritic cell (DC) medium (2.5% granulocyte-macrophage colony-stimulating factor (GM-CSF), 10% […] foetal calf serum, 1% L-glutamine, 1% Penicillin/Streptomycin in RPMI-1640 medium) was injected into the bone marrow of the femur by a pumping action and the cells and medium were collected. 1 ml of the cells in medium was added to a 75 cm^2 flask with 15 mls of DC medium. The flasks were then incubated at 37° C., 5% CO2 to allow DC growth and development. After 5 days an additional 10 mls of DC medium was added.
After 10 days of incubation of bone marrow with GM-CSF, the dendritic cells were harvested. This process was carried out in a tissue culture hood. The contents of the flasks were poured into centrifuge tubes to ensure collection of floating DCs. Approximately 10 mls of cooled phosphate buffered saline (PBS) was added to each empty flask, the flasks gently agitated and the contents collected. […] The collected contents of the flasks were centrifuged for 5 minutes at 200 g and the pellet resuspended in 2 mls of DC medium without GM-CSF. A cell count was then carried out.
Cells were counted using a haemocytometer. Approximately 20 μl of the resuspended cells was pipetted into the chamber of the haemocytometer, the cells were adjusted to the correct cell concentration (approx. 5×10^4, and not less than 1×10^4, per well) and then plated out for assay.
The plates were incubated overnight at 37° C. with 5% CO2 and allowed to settle (harvesting stimulates them). The next day the compounds (50 μg/ml and 20 μg/ml) and controls were added then again incubated at 37° C. with 5% CO2 for 24 hrs (or 48 hrs). Harvesting and addition of the compounds was all done in a hood. The plates were then frozen to kill the cells and once defrosted the supernatant analysed as described below.
Using an enzyme linked immunosorbent assay (ELISA) IL-12 concentration in the supernatants was measured. All reagents used in this assay were from PharMingen. A 96-well flat-bottomed ELISA plate was coated with purified rat anti-mouse IL-12 (p40/p70) MAb (Cat no. 554478) at 2 μg/ml diluted in PBS pH 9.0 at 50 μl/well. The plate was then covered in cling film and incubated at 4° C. Following incubation the plate was washed 3 times in washing buffer and dried. 200 μl of blocking buffer (10% foetal calf serum in PBS pH 7.0) was added to each well then covered in cling film and incubated at 37° C. for 45 minutes. The plate was washed 3 times and dried. Recombinant mouse Il-12 standard was added at 30 μl in duplicate wells, starting at 10 ng/ml then 5, 2.5, 1.25, 0.625, 0.31, 0.156, 0.078, 0.039, 0.020, 0.010, 0.005 ng/ml. Standards were diluted in blocking buffer. The supernatant samples were added in at 50 μl/well. The plate was then covered in cling film and incubated for 2 hours at 37° C. The plate was then washed 4 times, dried and the secondary antibody added.
Biotin labelled anti-mouse IL-12 (p40/p70) MAb (Cat no. 18482D) at 1 μg/ml (diluted in blocking buffer) was added to each well at a volume of 100 μl/well. The plate was covered in cling film and incubated at 37° C. for 1 hour. The plate was then washed 5 times, dried and the conjugate added. Streptavidin-AKP (Cat no. 13043E) at 100 μl/well was added at a dilution of 1/2000 in blocking buffer followed by incubation under cling film at 37° C. for 45 minutes.
The plate was finally washed 6 times, dried and the substrate added. pNPP (Sigma) in glycine buffer at 1 mg/ml was added at 100 μl/well. The plate was then covered in tinfoil, incubated at 37° C. and checked every 30 minutes for a colour change.
The plate was then read at 405 nm using a SPECTRAmax 190 spectrometer.

HSV-1 (SC16) = test: Treatment of murine HSV-1 infection: ear pinna thickness; type: in vivo, BALB/c mice; settings: result in words; casuarine at both doses (15 and 150 mg/kg i.p.); famciclovir via drinking water 1 mg/ml
β-D-galactosidase = test: Glycosidase inhibition, β-D-galactosidase; type: biochemical, Bovine liver; settings: 1 mg/ml; second galactosidase line
Experimental: (§1) All enzymes were purchased from Sigma, as were the appropriate p-nitrophenyl substrates. Assays were carried out in microtitre plates. Enzymes were assayed in 0.1 M citric acid/0.2M di-sodium hydrogen phosphate (McIlvaine) buffers at the optimum pH for the enzyme. All assays were carried out at 20° C. For screening assays the incubation assay consisted of 10 μl of enzyme solution, 10 μl of inhibitor solution (made up in water) and 50 μl of the appropriate 5 mM p-nitrophenyl substrate (3.57 mM final conc.) made up in McIlvaine buffer at the optimum pH for the enzyme.
(§2) The reactions were stopped with 0.4M glycine (pH 10.4) during the exponential phase of the reaction, which was determined at the beginning of the assay using blanks with water, which were incubated for a range of time periods to measure the reaction rate using 5 mM substrate solution. Endpoint absorbances were read at 405 nm with a Biorad microtitre plate reader (Benchmark). Water was substituted for the inhibitors in the blanks.

β-D-glucosidase = test: Glycosidase inhibition, β-D-glucosidase; type: biochemical, Almonds (Prunus sp.)
Experimental: as §1, §2

MCF-7 cells = test: Effect on glycosylation of breast cancer cells; type: cell-based; settings: MCF-7, 0.75 mM; difference from untreated cells at the 62 and 86 hour time points
Experimental: MCF-7 cells (European Collection of Cell Cultures Ref. 86012803) were taken from liquid nitrogen stock, thawed at room temperature and transferred to 10 ml Dulbeccos Modified Eagle's Medium with Hams F12, 15 mM Hepes and L-glutamine (DMEM: Cambrex Cat. No. BE12-719F) supplemented with 10% v/v foetal calf serum (FCS: BioWest Labs Cat. No. S02755, Lot. No. S1800). The FCS was pre-filtered through a 0.2 μm steril filter.
The cells were then centrifuged at 1,500 rpm in a Centaur bench-top centrifuge and the supernatant removed. The cells were reconstituted in fresh media and seeded into two T75 cm^3 Nunclon tissue culture flasks and allowed to settle overnight at 37° C. in a 5% CO2 incubator. The flasks were wrapped in cling film to prevent cross-contamination and the following day the media was changed to include the antibiotics penicillin and streptomycin as a precautionary measure against infection (at concentrations of 1 mg/cm^3 and 5 mg/cm^3, respectively). […]
The cells were harvested using a non-enzymatic method. At each of the time points the cells were viewed under the inverted light microscope and the morphology evaluated. […] The number of cells was then counted in a haemocytometer and cell viability evaluated by mixing 0.1 cm^3 of each cell suspension with a drop of trypan blue solution. […]
Evaluated using the BioRad protein assay according to the manufacturer's instructions. […]

B16-F10 tumour cells = test: Control of lung metastasis in mice; type: in vivo, Mice (C57/bl6); settings: 50 mg/kg s/c on days 2 and 4; lungs on day 14
Experimental: Mice (C57/bl6 under i/p ketamine anaesthesia) were challenged i/v (tail vein) with 5×10^4 B16-F10 tumour cells in a final volume of 100 μl per mouse on day 0. Test compounds (50 mg/kg in 200 μl sterile non-pyrogenic saline) were administered s/c (right flank) on days 2 and 4. On day 14 the mice were sacrifices and the lungs dissected and stained in Indian ink solution (150 ml bidistilled water, 30 ml India Ink, 4 drops NH4OH) for 10 minutes then fixed for at least 24 hr in Fakete's solution (90 ml 37% formaldehyde, 900 ml 70% EtOH and 45 ml glacial acetic acid). The metastases in the stained and fixed lungs could then be visualized, counted and photographed.

[2] = tested on: Na^+-dependent D-glucose uptake into ovine intestinal brush border membrane vesicles; test: Effect on glucose transport (competition assay with labelled D-glucose); type: biochemical

T1 sequence (P07768 whole entry): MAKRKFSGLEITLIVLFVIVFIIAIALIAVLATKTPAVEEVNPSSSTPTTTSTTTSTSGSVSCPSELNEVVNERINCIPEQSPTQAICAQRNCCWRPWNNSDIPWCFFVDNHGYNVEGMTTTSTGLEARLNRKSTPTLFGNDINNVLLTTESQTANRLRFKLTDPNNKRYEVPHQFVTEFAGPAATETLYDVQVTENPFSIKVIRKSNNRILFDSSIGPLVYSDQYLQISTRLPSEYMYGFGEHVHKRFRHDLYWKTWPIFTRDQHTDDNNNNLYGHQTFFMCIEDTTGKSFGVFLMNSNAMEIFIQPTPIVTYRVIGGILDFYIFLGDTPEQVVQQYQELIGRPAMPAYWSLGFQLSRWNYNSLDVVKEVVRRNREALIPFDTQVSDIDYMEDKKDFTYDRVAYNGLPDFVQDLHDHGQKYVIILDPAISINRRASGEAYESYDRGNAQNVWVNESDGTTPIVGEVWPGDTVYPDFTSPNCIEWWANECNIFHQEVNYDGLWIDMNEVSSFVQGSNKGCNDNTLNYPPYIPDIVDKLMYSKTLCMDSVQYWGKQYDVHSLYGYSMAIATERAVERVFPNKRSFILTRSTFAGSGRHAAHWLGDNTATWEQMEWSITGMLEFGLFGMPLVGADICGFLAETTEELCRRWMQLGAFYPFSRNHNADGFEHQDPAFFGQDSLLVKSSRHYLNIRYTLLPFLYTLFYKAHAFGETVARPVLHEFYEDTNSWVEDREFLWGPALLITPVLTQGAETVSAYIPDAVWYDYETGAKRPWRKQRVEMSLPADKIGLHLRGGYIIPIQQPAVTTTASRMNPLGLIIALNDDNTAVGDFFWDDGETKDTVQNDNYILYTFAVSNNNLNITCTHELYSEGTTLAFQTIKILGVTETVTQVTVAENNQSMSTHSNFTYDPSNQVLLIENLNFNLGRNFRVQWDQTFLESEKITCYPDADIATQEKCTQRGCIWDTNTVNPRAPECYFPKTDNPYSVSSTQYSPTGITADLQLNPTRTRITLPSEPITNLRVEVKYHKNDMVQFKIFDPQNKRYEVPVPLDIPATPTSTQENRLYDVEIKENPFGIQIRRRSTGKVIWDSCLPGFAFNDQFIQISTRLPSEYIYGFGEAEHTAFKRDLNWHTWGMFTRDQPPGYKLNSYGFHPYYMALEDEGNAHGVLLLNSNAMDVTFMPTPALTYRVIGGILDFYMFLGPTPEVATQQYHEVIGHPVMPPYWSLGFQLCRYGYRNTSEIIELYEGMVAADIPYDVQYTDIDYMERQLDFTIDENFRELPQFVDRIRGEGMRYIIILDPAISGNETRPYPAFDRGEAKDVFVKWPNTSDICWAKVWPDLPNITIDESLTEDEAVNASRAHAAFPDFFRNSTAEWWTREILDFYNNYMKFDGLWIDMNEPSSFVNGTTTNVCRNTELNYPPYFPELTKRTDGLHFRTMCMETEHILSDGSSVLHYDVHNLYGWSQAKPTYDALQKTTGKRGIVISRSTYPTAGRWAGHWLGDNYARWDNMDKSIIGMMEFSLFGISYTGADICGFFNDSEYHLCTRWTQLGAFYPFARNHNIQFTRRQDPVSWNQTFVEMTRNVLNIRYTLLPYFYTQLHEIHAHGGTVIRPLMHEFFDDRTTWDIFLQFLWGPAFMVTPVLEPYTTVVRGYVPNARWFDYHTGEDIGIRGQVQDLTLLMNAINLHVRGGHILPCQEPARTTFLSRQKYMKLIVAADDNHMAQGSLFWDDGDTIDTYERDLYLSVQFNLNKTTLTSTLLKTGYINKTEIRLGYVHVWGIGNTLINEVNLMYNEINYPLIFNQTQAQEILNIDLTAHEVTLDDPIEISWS

Compound: OC[C@@H]1[C@@H](O)[C@H](O)[C@H]2[C@H](O)[C@@H](O)CN21 [casuarine (8), (1R,2R,3R,6S,7S,7aR)-3-(hydroxymethyl)-1,2,6,7-tetrahydroxypyrrolizidine]
- inhibition of rabbit small intestine sucrase [1]: inhibited
- IL-12 RELEASE (Dendritic cells): Yes
- ear thickness response (HSV-1 (SC16)): produced a reduction in ear thickness
- % inhibition galactosidase (β-D-galactosidase): 0%
- % inhibition glucosidase (β-D-glucosidase; 1 mg/ml): 0%
- inhibition of almond 6-D-glucosidase (β-D-glucosidase; at 800 μM): not being inhibitory
- glycan synthesis and/or N-linked glycosylation in breast cancer cells (MCF-7 cells): can inhibit glycan synthesis and/or N-linked glycosylation
- Metastatic morphology (B16-F10 tumour cells): Metastasis restricted to apical tip of lung
- Glucose uptake ([2]; initial rate, control 240): 265 pmol/s/mg
- glucose transport ([2]; result in words): slightly stimulated
